Test results as given in patent publication US12215085B2 (priority 2019, dated 2025).
Where a name gives a salt, the structure may show the parent alone. Marks after values point to notes of the source that are not given here.

Legend:
[1] = test system: rats with beta-amyloid induced senile dementia; assay: Step-down test, beta-amyloid induced senile dementia rats; format: in vivo, rat; settings: donepezil hydrochloride 1.75 mg/kg, P<0.05
[2] = test system: rats with common carotid artery occlusion-induced vascular dementia; assay: Step-down test, common carotid artery occlusion-induced vascular dementia rats; format: in vivo, rat
Excerpt: (§1) A rat blood vessel dementia model was made according to the references [ZHAO Xian-lin, FANG Xiu-bin, LI Dong-pei. Establishment of Vascular Dementia Model in Rats, J Chin Med Univ, 2002, 31 (3): 166-168; WANG Yong-yan, Zhang Bo-li, Editor-in-chief. Modern Chinese Medicine Clinic and Research on Vascular Dementia, People's Medical Publishing House, October 2003, First Version 214]: Chloral hydrate 0.4 g/kg was intraperitoneally injected for anesthetizing rats, and bilateral common carotid arteries were isolated and ligated. The animals were fed for 16 weeks, divided into groups on the last 7 days, and administered. The normal control group and the model group were administrated through the intragastric route with distilled water by 0.5 ml/100 g, the positive control group was administrated through the intragastric route with donepezil hydrochloride by 1.75 mg/kg (equivalent to 3.85 times the clinical daily dosage of 5 mg/70 kg), the low, medium and high-dose groups of Crystal Form A of octahydroaminoacridine succinate were administrated through the intragastric route with Crystal Form A of octahydroaminoacridine succinate by 0.7, 1.4 and 2.8 mg/kg (equivalent to 0.96, 1.92 and 3.85 times the clinical daily dosage of 8 mg/70 kg). The water maze test and the step-down test were carried out after continuous administration for 7 days, and the administration was continued during the test period. The water maze test was continuously performed for 7 days, in the first 6 days, in four different water entry points of quadrants 1, 2, 3 and 4, the time, the swimming path length, the orientation angle and the average speed of the rat reaching the platform were measured, meanwhile, the strategy for reaching the platform adopted by rats was observed, on the 7th day, the platform was removed, the number of rats crossing the platform in 2 minutes, the residence time in the platform area, the residence time in the platform quadrants, the percentage of the swimming path length in the platform area quadrants to the total swimming path length, the average speed and the orientation angle were measured. After the water maze test was finished, the step-down test was performed, and the number of electric shocks (or called as the error number) received by each rat within 5 minutes was recorded as the learning performance. The test was performed again after 24 hours, namely, the memory retention test, and the latent period for stepping-down the platform for the first time and the error number in five minutes were recorded. After the step-down test was finished, the brain was taken quickly for pathological examination, and the pathological changes of the hippocampus and the cortex were observed.

[3] = test system: rats with beta-amyloid induced senile dementia; assay: Water maze test, beta-amyloid induced senile dementia rats; format: in vivo, rat; settings: for adopted strategy for reaching the platform (the peripheral type and the random type %) / orientation angle for reaching the platform / speed for reaching the platform / swimming path length for reaching the platform / time for reaching the platform: 1.75 mg/kg intragastric; for orientation angle for reaching the platform / speed for reaching the platform / swimming path length for reaching the platform / time for reaching the platform: x ± s
[4] = test system: rats with common carotid artery occlusion-induced vascular dementia; assay: Water maze test, common carotid artery occlusion-induced vascular dementia rats; format: in vivo, rat; settings: for orientation angle for reaching the platform / speed for reaching the platform / swimming path length for reaching the platform / time for reaching the platform: x ± s
Excerpt: as §1

[5] = test system: cholinesterase B (Homo sapiens); assay: In vitro inhibition of cholinesterase B; format: biochemical; settings: in vitro tests; multiple of rivastigmine
cholinesterase D = cholinesterase D (Homo sapiens, UniProt P06276); format: biochemical; settings: in vitro tests; multiple of rivastigmine
[6] = donepezil hydrochloride 1.75 mg/kg, Day 2, P<0.05
[7] = step-down method, 1.75 mg/kg intragastric, x ± s
[8] = donepezil hydrochloride 1.75 mg/kg, Day 1 to Day 6
[9] = donepezil hydrochloride 1.75 mg/kg, Day 7
[10] = donepezil hydrochloride 1.75 mg/kg, Day 7, P<0.05
[11] = donepezil hydrochloride 1.75 mg/kg, P<0.05 or P<0.01

Chain of cholinesterase D (P06276 29-602): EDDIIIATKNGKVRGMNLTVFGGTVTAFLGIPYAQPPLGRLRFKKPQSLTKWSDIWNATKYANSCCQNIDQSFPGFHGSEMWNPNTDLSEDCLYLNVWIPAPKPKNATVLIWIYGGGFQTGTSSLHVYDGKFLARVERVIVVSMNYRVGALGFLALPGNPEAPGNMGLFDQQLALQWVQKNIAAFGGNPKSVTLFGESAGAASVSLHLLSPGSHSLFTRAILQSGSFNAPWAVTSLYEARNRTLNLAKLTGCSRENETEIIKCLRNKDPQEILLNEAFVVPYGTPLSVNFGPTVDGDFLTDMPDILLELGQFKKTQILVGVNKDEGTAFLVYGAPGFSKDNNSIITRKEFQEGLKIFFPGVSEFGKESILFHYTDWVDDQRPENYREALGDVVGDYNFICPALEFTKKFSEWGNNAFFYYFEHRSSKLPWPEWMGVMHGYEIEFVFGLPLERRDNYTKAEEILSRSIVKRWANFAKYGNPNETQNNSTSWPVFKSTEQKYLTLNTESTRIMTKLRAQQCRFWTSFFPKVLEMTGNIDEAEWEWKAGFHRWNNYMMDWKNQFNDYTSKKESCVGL
Chain of cholinesterase B (Homo sapiens) (P22303 32-614): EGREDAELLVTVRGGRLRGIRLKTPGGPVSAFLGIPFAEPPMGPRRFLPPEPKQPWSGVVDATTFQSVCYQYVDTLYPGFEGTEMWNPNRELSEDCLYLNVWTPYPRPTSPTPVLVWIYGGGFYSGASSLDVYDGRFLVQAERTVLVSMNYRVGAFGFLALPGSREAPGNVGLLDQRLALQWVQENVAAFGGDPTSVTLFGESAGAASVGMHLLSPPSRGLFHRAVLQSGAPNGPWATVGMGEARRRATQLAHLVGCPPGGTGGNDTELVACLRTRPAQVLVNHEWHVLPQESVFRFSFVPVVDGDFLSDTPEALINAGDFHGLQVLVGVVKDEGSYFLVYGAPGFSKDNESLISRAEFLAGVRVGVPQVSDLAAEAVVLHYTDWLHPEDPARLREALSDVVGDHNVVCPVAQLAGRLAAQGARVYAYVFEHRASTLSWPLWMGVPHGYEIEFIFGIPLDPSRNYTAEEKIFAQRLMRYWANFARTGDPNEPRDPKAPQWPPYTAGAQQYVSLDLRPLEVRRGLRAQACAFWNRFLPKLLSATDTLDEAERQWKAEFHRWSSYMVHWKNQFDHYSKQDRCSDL

COc1cc2c(cc1OC)C(=O)C(CC1CCN(Cc3ccccc3)CC1)C2 (centres unmarked) [Positive control group, donepezil hydrochloride]
step-down error number vs model group ([1]; Day 1 and Day 2): obviously reduced
error latency vs model group ([1]; Day 2): obviously prolonged
step-down error number vs model group ([2]; donepezil hydrochloride 1.75 mg/kg, Day 1 and Day 2, P<0.05): obviously reduced
error latency vs model group [2, 6]: obviously prolonged
Day 1, Error number [2, 7]: 5.40 ± 3.06
Day 2, Error latency [2, 7]: 244.10 ± 77.83 s
Day 2, Error number [2, 7]: 1.10 ± 1.28
adopted strategy for reaching the platform (the peripheral type and the random type %) ([3]; Day 1): 97.50%
orientation angle for reaching the platform ([3]; Day 1): 75.41 ± 22.31 °
speed for reaching the platform ([3]; Day 1): 16.03 ± 4.22 cm/s
swimming path length for reaching the platform ([3]; Day 1): 1029.43 ± 453.12 cm
time for reaching the platform ([3]; Day 1): 72.43 ± 30.97 s
adopted strategy for reaching the platform (the peripheral type and the random type %) ([3]; Day 2): 75.00%
orientation angle for reaching the platform ([3]; Day 2): 50.14 ± 23.02 °
speed for reaching the platform ([3]; Day 2): 20.78 ± 5.83 cm/s
swimming path length for reaching the platform ([3]; Day 2): 762.34 ± 562.06 cm
time for reaching the platform ([3]; Day 2): 38.98 ± 33.812 s
adopted strategy for reaching the platform (the peripheral type and the random type %) ([3]; Day 3): 77.50%
orientation angle for reaching the platform ([3]; Day 3): 52.85 ± 27.04 °
speed for reaching the platform ([3]; Day 3): 19.15 ± 4.64 cm/s
swimming path length for reaching the platform ([3]; Day 3): 572.83 ± 576.82 cm
time for reaching the platform ([3]; Day 3): 34.41 ± 37.35 s
adopted strategy for reaching the platform (the peripheral type and the random type %) ([3]; Day 4): 62.50** %
orientation angle for reaching the platform ([3]; Day 4): 46.37 ± 17.86 °
speed for reaching the platform ([3]; Day 4): 22.07 ± 8.05 cm/s
swimming path length for reaching the platform ([3]; Day 4): 312.04 ± 316.86 cm
time for reaching the platform ([3]; Day 4): 29.32 ± 39.89 s
adopted strategy for reaching the platform (the peripheral type and the random type %) ([3]; Day 5): 67.50** %
orientation angle for reaching the platform ([3]; Day 5): 50.54 ± 24.98 °
speed for reaching the platform ([3]; Day 5): 19.67 ± 3.94 cm/s
swimming path length for reaching the platform ([3]; Day 5): 495.72 ± 380.99 cm
time for reaching the platform ([3]; Day 5): 29.16 ± 24.95 s
adopted strategy for reaching the platform (the peripheral type and the random type %) ([3]; Day 6): 62.50* %
orientation angle for reaching the platform ([3]; Day 6): 44.21 ± 34.00 °
speed for reaching the platform ([3]; Day 6): 18.28 ± 5.12 cm/s
swimming path length for reaching the platform ([3]; Day 6): 413.33 ± 483.35 cm
time for reaching the platform ([3]; Day 6): 28.99 ± 35.61 s
swimming speed vs model group [3, 8]: not obviously changed
latent period for reaching the platform vs model group ([3]; donepezil hydrochloride 1.75 mg/kg, Day 1 to Day 6, no statistical significance): shortened trend
orientation angle vs model group [3, 6]: obviously decreased
swimming path length for reaching the platform vs model group ([3]; donepezil hydrochloride 1.75 mg/kg, Day 4, P<0.05): obviously shortened
average speed and orientation angle vs model group [3, 9]: not obviously changed
number of crossing the platform vs model group [3, 10]: obviously increased
percentage of the swimming path length in the platform area quadrants to the total swimming path length vs model group [3, 10]: obviously increased
residence time in the platform area vs model group [3, 10]: obviously increased
residence time in the platform quadrants within 2 minutes vs model group [3, 10]: obviously increased
conversion from the peripheral type and the random type to the tendency type and the linear type in the strategy for looking for the platform [3, 11]: obviously increased
adopted strategy for reaching the platform (the peripheral type and the random type %) ([4]; Day 1, 1.75 mg/kg intragastric): 65.00* %
orientation angle for reaching the platform ([4]; Day 1, 1.75 mg/kg intragastric): 58.85 ± 15.35 °
speed for reaching the platform ([4]; Day 1, 1.75 mg/kg intragastric): 21.15 ± 5.56 cm/s
swimming path length for reaching the platform ([4]; Day 1, 1.75 mg/kg intragastric): 1105.00 ± 578.29 cm
time for reaching the platform ([4]; Day 1, 1.75 mg/kg intragastric): 58.42 ± 23.42 s
adopted strategy for reaching the platform (the peripheral type and the random type %) ([4]; Day 2, 1.75 mg/kg intragastric): 62.50%
orientation angle for reaching the platform ([4]; Day 2, 1.75 mg/kg intragastric): 61.54 ± 17.41 °
speed for reaching the platform ([4]; Day 2, 1.75 mg/kg intragastric): 22.68 ± 5.82 cm/s
swimming path length for reaching the platform ([4]; Day 2, 1.75 mg/kg intragastric): 579.08 ± 316.12 cm
time for reaching the platform ([4]; Day 2, 1.75 mg/kg intragastric): 33.96 ± 17.06 s
adopted strategy for reaching the platform (the peripheral type and the random type %) ([4]; Day 3, 1.75 mg/kg intragastric): 62.50* %
orientation angle for reaching the platform ([4]; Day 3, 1.75 mg/kg intragastric): 48.94 ± 13.42 °
speed for reaching the platform ([4]; Day 3, 1.75 mg/kg intragastric): 21.19 ± 3.15 cm/s
swimming path length for reaching the platform ([4]; Day 3, 1.75 mg/kg intragastric): 606.25 ± 279.18 cm
time for reaching the platform ([4]; Day 3, 1.75 mg/kg intragastric): 30.17 ± 14.50 s
adopted strategy for reaching the platform (the peripheral type and the random type %) ([4]; Day 4, 1.75 mg/kg intragastric): 67.50%
orientation angle for reaching the platform ([4]; Day 4, 1.75 mg/kg intragastric): 58.94 ± 22.56 °
speed for reaching the platform ([4]; Day 4, 1.75 mg/kg intragastric): 25.79 ± 9.79 cm/s
swimming path length for reaching the platform ([4]; Day 4, 1.75 mg/kg intragastric): 615.78 ± 385.17 cm
time for reaching the platform ([4]; Day 4, 1.75 mg/kg intragastric): 23.92 ± 12.45 s
adopted strategy for reaching the platform (the peripheral type and the random type %) ([4]; Day 5, 1.75 mg/kg intragastric): 50.00%
orientation angle for reaching the platform ([4]; Day 5, 1.75 mg/kg intragastric): 49.64 ± 17.65 °
speed for reaching the platform ([4]; Day 5, 1.75 mg/kg intragastric): 24.88 ± 8.76 cm/s
swimming path length for reaching the platform ([4]; Day 5, 1.75 mg/kg intragastric): 586.80 ± 405.09 cm
time for reaching the platform ([4]; Day 5, 1.75 mg/kg intragastric): 21.94 ± 11.16 s
adopted strategy for reaching the platform (the peripheral type and the random type %) ([4]; Day 6, 1.75 mg/kg intragastric): 47.50** %
orientation angle for reaching the platform ([4]; Day 6, 1.75 mg/kg intragastric): 53.54 ± 19.68 °
speed for reaching the platform ([4]; Day 6, 1.75 mg/kg intragastric): 21.02 ± 6.67 cm/s
swimming path length for reaching the platform ([4]; Day 6, 1.75 mg/kg intragastric): 348.06 ± 202.65 cm
time for reaching the platform ([4]; Day 6, 1.75 mg/kg intragastric): 17.87 ± 12.66 s
Average speed ([4]; Day 7, 1.75 mg/kg intragastric): 24.60 ± 10.18 cm/s
Number of crossing the platform ([4]; Day 7, 1.75 mg/kg intragastric): 9.40 ± 5.16
Orientation angle ([4]; Day 7, 1.75 mg/kg intragastric): 9.40 ± 5.17 °
Swimming path length in the platform area/total swimming path length × 100% ([4]; Day 7, 1.75 mg/kg intragastric): 33.02 ± 9.98%
Time in the platform area ([4]; Day 7, 1.75 mg/kg intragastric): 3.06 ± 2.24 s
Time in the platform quadrants ([4]; Day 7, 1.75 mg/kg intragastric): 42.21 ± 12.71 s
orientation angle and swimming speed vs model group [4, 8]: not obviously changed
swimming path length for reaching the platform vs model group ([4]; donepezil hydrochloride 1.75 mg/kg, Day 2, Day 3 and Day 6, P<0.05): obviously shortened
latent period for reaching the platform vs model group ([4]; donepezil hydrochloride 1.75 mg/kg, Day 5 and Day 6, P<0.05 or P<0.01): obviously shortened
average speed and orientation angle vs model group [4, 9]: not obviously changed
residence time in the platform quadrants within 2 minutes vs model group [4, 10]: obviously increased
number of crossing the platform, residence time in the platform area, and percentage of the swimming path length in the platform area quadrants to the total swimming path length vs model group ([4]; donepezil hydrochloride 1.75 mg/kg, Day 7, no statistical significance): increased trend
conversion from the peripheral type or the random type to the tendency type or the linear type in the strategy for looking for the platform [4, 11]: obviously increased

Nc1c2c(nc3c1CCCC3)CCCC2.O=C(O)CCC(=O)O [octahydroaminoacridine succinate, 9-amino-1,2,3,4,5,6,7,8-octahydroacridine succinate]
inhibiting ability to cholinesterase B relative to rivastigmine [5]: 500 times
inhibiting ability to cholinesterase D relative to rivastigmine (cholinesterase D): 2000 times
